Experimental data published in article PMC4130243 (ACS Combinatorial Science, 2014).
pKi: −log10 of the molar value.

Target: T1, Mdm4 (Homo sapiens, UniProt O15151)
T1 sequence (O15151 1-490): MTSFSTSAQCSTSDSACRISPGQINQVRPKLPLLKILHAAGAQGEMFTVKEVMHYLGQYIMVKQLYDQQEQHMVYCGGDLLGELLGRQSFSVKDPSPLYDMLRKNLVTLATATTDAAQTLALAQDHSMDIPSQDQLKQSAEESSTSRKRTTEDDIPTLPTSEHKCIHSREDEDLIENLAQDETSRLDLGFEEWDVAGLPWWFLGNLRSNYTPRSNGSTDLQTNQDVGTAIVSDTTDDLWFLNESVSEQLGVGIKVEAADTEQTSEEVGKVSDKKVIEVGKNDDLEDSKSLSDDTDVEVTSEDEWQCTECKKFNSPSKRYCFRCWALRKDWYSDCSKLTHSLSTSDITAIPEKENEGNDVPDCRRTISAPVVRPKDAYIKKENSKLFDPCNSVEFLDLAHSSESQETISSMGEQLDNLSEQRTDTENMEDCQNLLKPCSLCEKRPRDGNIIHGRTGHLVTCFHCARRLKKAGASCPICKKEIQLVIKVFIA
Assay: fluorescence polarization assay, p53-Mdm4
Assay type: binding
Details: FP, resynthesized and purified by flash chromatography

pKi: 5.26
Structure (SMILES): O=C(CN(Cc1ccc(Cl)cc1)C(=O)c1cc2ccccc2[nH]1)NC1CCCCC1 [Compound B1, N-(4-Chlorobenzyl)-N-(2-(cyclohexylamino)-2-oxoethyl)-1H-indole-2-carboxamide]
